Results from patent publication US12357636B2 (Urovant Sciences GmbH, priority 2018, dated 2025).

How the values were obtained:
[1] = biological target: T1, β1-AR (Homo sapiens, UniProt P08588); assay: competition binding assay, membranes with recombinant β1-AR
T1 construct: expressed in transfected cells; membranes prepared from them

[2] = human plasma protein binding; format: in vitro ADME
[3] = multiple rising dose Phase 1 pharmacokinetics; format: in vivo, human
Text: Although exposures were similar in middle-aged males when compared to young males, plasma concentrations were higher in elderly compared to middle-aged and young subjects.

[4] = PK in renal impairment, single dose 100 mg; format: in vivo, human; conditions: for CL/F / Fe[urine] 48 hr / AUC0-inf: single 100 mg
Text: The relationship between clearance and renal function was modeled using linear regression.

[5] = drug interaction: effect of ketoconazole, diltiazem or tolterodine on vibegron PK; format: in vivo, human
Text: However, these interactions are not expected to be clinically significant.

[6] = tested on: men and women with OAB; assay: Phase 2b study in OAB: efficacy (voiding diary); format: in vivo, human; conditions: OAB Wet
Text: Part 2 was designed to continue to assess the safety and efficacy of concomitant dosing. […] Subjects in both Part 1 and Part 2 had the option of enrolling in a 1-year extension. Participants were required to keep a voiding diary, recording the occurrence of each strong urge, total incontinence, and urge incontinence episode. Efficacy data for Part 1 and Part 2 are summarized herein.
The total number of urgency incontinence episodes must have exceeded the total number of stress incontinence episodes for all subjects.
Conversely, a dose dependent effect on urge incontinence or total incontinence was not observed.

[7] = tested on: patients with OAB; assay: Phase 2b study: cardiovascular safety, orthostatic AEs, blood pressure and heart rate changes (Table 17); format: in vivo, human; conditions: for DBP Change from Baseline [≥] 5 mm Hg, n/N (%) / DBP Change from Baseline [≥] 10 mm Hg, n/N (%) / DBP Change from Baseline ≥15 mm Hg, n/N (%) / HR Change from Baseline [≥] 10 bpm, n/N (%) / HR Change from Baseline ≥5 bpm, n/N (%) / HR Change from Baseline ≥15 bpm, n/N (%) / SBP Change from Baseline [≥] 5 mm Hg, n/N (%) / SBP Change from Baseline [≥] 10 mm Hg, n/N (%) / SBP Change from Baseline ≥15 mm Hg, n/N (%): counts based on 3 consecutive post-baseline visits; for DBP Change from Baseline, Mean (95% CI) Max / HR Change from Baseline, Mean (95% CI) Maximum / SBP Change from Baseline, Mean (95% CI) Maximum: mean maximum from week 1 to 8
Text: None led to discontinuation. The overall incidence of orthostatic symptoms was low.
Small differences in the percent of subjects exceeding categorical heart rate and blood pressure thresholds for vibegron were similar to those in the tolterodine arm.

[8] = tested on: healthy subjects; assay: multiple-dose Phase 1 study: maximum MA4 heart rate; format: in vivo, human; conditions: Day 14
Method: More intensive assessments of heart rate and blood pressure were performed in healthy volunteers in several Phase 1 studies. […] Doses ranged from 25 to 400 mg once daily for 7 to 28 days depending on the cohort. Least squares mean and 90% confidence intervals of maximum change from baseline in moving average of heart rate over 4 hours postdose (MA4 HR) are presented in Table 18.

[9] = tested on: healthy subjects; conditions: in vivo
[10] = tested on: healthy subjects
Text: Safety data from 16 Phase 1 studies, which include 15 completed Phase 1 studies and 1 study that was terminated early (this study was terminated for reasons unrelated to efficacy or safety) was collected.

[11] = human, in vivo
[12] = healthy matched control subjects
[13] = multiple doses of 240 mg or 180 mg diltiazem, vibegron 100 mg

T1 sequence (P08588 whole entry): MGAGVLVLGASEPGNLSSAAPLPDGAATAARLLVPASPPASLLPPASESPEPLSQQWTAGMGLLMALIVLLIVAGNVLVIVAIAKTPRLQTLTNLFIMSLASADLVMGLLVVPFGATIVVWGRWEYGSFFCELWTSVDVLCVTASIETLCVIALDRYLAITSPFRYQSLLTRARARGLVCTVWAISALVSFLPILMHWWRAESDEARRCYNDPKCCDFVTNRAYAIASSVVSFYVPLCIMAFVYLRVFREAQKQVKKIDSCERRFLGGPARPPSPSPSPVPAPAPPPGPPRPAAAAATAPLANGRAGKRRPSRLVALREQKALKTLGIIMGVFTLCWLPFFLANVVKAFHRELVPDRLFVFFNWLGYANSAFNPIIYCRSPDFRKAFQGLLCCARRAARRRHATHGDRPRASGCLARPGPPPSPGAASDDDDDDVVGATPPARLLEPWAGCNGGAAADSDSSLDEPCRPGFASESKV

## O=C(Nc1ccc(C[C@@H]2CC[C@H]([C@H](O)c3ccccc3)N2)cc1)[C@@H]1CCc2nccc(=O)n21 [Vibegron, (6S)—N-[4-[[(2S,5R)-5-[(R)-hydroxy(phenyl)methyl]pyrrolidin-2-yl]methyl]phenyl]-4-oxo-7,8-dihydro-6H-pyrrolo[1,2-a]pyrimidine-6-carboxamide]
[1]
  binding to β1-AR: does not bind
[2]
  bound to human plasma proteins: approximately 49%
[3]; 100 mg QD
  steady state Cmax, elderly compared to young males: ~1.3 fold
[3]; 100 mg, elderly subjects
  fe0-24hr, ss: ~17%
[3]; 200 mg multiple dose, day 14, healthy young males
  AUC0-24: 3200 ± 1120 ng·h/mL
[3]; 100 and 150 mg, young males
  fe0-24hr, ss: ~14%
[3]; Day 14
  steady state exposure (AUC0-24) higher in elderly Japanese than elderly non-Japanese: 35%
[3]; in vivo
  Cmax increase in elderly Japanese compared to elderly non-Japanese: 82%
  higher Cmax in elderly and females than healthy young males: 50-70%
  steady state AUC, middle-aged females compared to middle-aged males: ~1.5 fold
  steady state exposures higher in Japanese than non-Japanese young males: ~30%
[3]; once daily dosing
  time to steady state: ≤ 7 days
[3]; regardless of age
  exposure (AUC) higher in females compared with males: 50%
[4]; in vivo
  mean increase in AUC, moderate renal impairment vs normal renal function: 1.6 fold
[4]; mild renal impairment
  AUC0-inf higher compared to healthy matched controls: 49%
  CLR reduced compared to healthy matched controls: 39%
  Cmax higher compared to healthy matched controls: 96%
  AUC0-inf: 2290 ng·h/mL
  CL/F: 43.6 L/h
  Fe[urine] 48 hr: 8.5%
[4]; moderate renal impairment
  AUC0-inf higher compared to healthy matched controls: 106%
  CLR reduced compared to healthy matched controls: 65%
  Cmax higher compared to healthy matched controls: 68%
  CL/F: 31.5 L/h
  Fe[urine] 48 hr: 5.5%
[4]; severe renal impairment
  AUC0-inf higher compared to healthy matched controls: 83%
  CLR reduced compared to healthy matched controls: 82%
  Cmax higher compared to healthy matched controls: 42%
  AUC0-inf: 2820 ng·h/mL
  CL/F: 35.5 L/h
  Fe[urine] 48 hr: 2.1%
[4]; [12]
  CL/F: 64.9 L/h
  Fe[urine] 48 hr: 7.9%
[4]; slope of linear regression
  CL/F increase per one mL/min/1.73 m2 increase in eGFR: ~0.8%
[5]; in vivo
  effect of tolterodine ER 4 mg on the pharmacokinetics of vibegron: no effect
[5]; [13]
  GM AUC0-inf increase with diltiazem: 63%
  GM Cmax increase with diltiazem: 68%
[6]; vibegron 15 mg QD
  Urgency Incontinence Episodes daily number, Week 8 mean: 1.12
[6]; vibegron 100 mg QD
  Total Incontinence Episodes daily number, Week 8 mean: 1.12
[7]; 50 mg and 100 mg
  SBP and DBP mean changes at Week 1 and mean maximum changes over 8 weeks, difference between placebo and vibegron: < 1 mm Hg
[7]; 100 mg
  subjects with a change from baseline in DBP>15 mmHg: 1.3%
[7]; in vivo
  HR mean maximum changes over 8 weeks, compared to placebo: < 2 bpm
[7]; vibegron 3 mg
  DBP Change from Baseline [≥] 5 mm Hg, n/N (%): 14/140 (10.0) %
  DBP Change from Baseline [≥] 10 mm Hg, n/N (%): 3/140 (2.1) %
  DBP Change from Baseline ≥15 mm Hg, n/N (%): 1/140 (0.7) %
  HR Change from Baseline [≥] 10 bpm, n/N (%): 5/140 (3.6) %
  HR Change from Baseline ≥5 bpm, n/N (%): 16/140 (11.4) %
  HR Change from Baseline ≥15 bpm, n/N (%): 1/140 (0.7) %
  SBP Change from Baseline [≥] 5 mm Hg, n/N (%): 21/140 (15.0) %
  SBP Change from Baseline [≥] 10 mm Hg, n/N (%): 10/140 (7.1) %
  SBP Change from Baseline ≥15 mm Hg, n/N (%): 4/140 (2.9) %
  DBP Change from Baseline, Mean (95% CI) Max: 5.03 (3.92, 6.15) mm Hg
  HR Change from Baseline, Mean (95% CI) Maximum: 5.57 (4.25, 6.90) bpm
  SBP Change from Baseline, Mean (95% CI) Maximum: 7.14 (5.18, 9.10) mm Hg
  DBP Change from Baseline, Mean (95% CI) (week 1): −0.37 (−1.69, 0.95) mm Hg
  HR Change from Baseline, Mean (95% CI) (week 1): 0.36 (−0.90, 1.62) bpm
  SBP Change from Baseline, Mean (95% CI) (week 1): −0.35 (−2.34, 1.65) mm Hg
[7]; vibegron 15 mg group
  subjects with orthostatic related AEs: 0.3%
[7]; vibegron 15 mg
  DBP Change from Baseline [≥] 5 mm Hg, n/N (%): 15/132 (11.4) %
  DBP Change from Baseline [≥] 10 mm Hg, n/N (%): 3/132 (2.3) %
  DBP Change from Baseline ≥15 mm Hg, n/N (%): 1/132 (0.8) %
  HR Change from Baseline [≥] 10 bpm, n/N (%): 4/132 (3.0) %
  HR Change from Baseline ≥5 bpm, n/N (%): 17/132 (12.9) %
  HR Change from Baseline ≥15 bpm, n/N (%): 1/132 (0.8) %
  SBP Change from Baseline [≥] 5 mm Hg, n/N (%): 22/132 (16.7) %
  SBP Change from Baseline [≥] 10 mm Hg, n/N (%): 9/132 (6.8) %
  SBP Change from Baseline ≥15 mm Hg, n/N (%): 1/132 (0.8) %
  DBP Change from Baseline, Mean (95% CI) Max: 6.37 (5.20, 7.53) mm Hg
  HR Change from Baseline, Mean (95% CI) Maximum: 6.56 (5.20, 7.92) bpm
  SBP Change from Baseline, Mean (95% CI) Maximum: 8.93 (7.18, 10.67) mm Hg
  DBP Change from Baseline, Mean (95% CI) (week 1): 0.03 (−1.52, 1.59) mm Hg
  HR Change from Baseline, Mean (95% CI) (week 1): 0.35 (−1.15, 1.85) bpm
  SBP Change from Baseline, Mean (95% CI) (week 1): −0.34 (−2.46, 1.78) mm Hg
[7]; vibegron 50 mg
  DBP Change from Baseline [≥] 5 mm Hg, n/N (%): 11/144 (7.6) %
  DBP Change from Baseline [≥] 10 mm Hg, n/N (%): 5/144 (3.5) %
  DBP Change from Baseline ≥15 mm Hg, n/N (%): 1/144 (0.7) %
  HR Change from Baseline [≥] 10 bpm, n/N (%): 4/144 (2.8) %
  HR Change from Baseline ≥5 bpm, n/N (%): 12/144 (8.3) %
  HR Change from Baseline ≥15 bpm, n/N (%): 1/144 (0.7) %
  SBP Change from Baseline [≥] 5 mm Hg, n/N (%): 24/144 (16.7) %
  SBP Change from Baseline [≥] 10 mm Hg, n/N (%): 14/144 (9.7) %
  SBP Change from Baseline ≥15 mm Hg, n/N (%): 3/144 (2.1) %
  DBP Change from Baseline, Mean (95% CI) Max: 4.19 (3.10, 5.29) mm Hg
  HR Change from Baseline, Mean (95% CI) Maximum: 5.49 (4.28, 6.69) bpm
  SBP Change from Baseline, Mean (95% CI) Maximum: 7.01 (5.31, 8.70) mm Hg
  DBP Change from Baseline, Mean (95% CI) (week 1): −0.70 (−2.07, 0.67) mm Hg
  HR Change from Baseline, Mean (95% CI) (week 1): 0.29 (−0.88, 1.46) bpm
  SBP Change from Baseline, Mean (95% CI) (week 1): −0.79 (−2.65, 1.08) mm Hg
[7]; vibegron 100 mg group
  subjects with orthostatic related AEs: 1.1%
[7]; vibegron 100 mg
  DBP Change from Baseline [≥] 5 mm Hg, n/N (%): 31/237 (13.1) %
  DBP Change from Baseline [≥] 10 mm Hg, n/N (%): 8/237 (3.4) %
  DBP Change from Baseline ≥15 mm Hg, n/N (%): 3/237 (1.3) %
  HR Change from Baseline [≥] 10 bpm, n/N (%): 7/237 (3.0) %
  HR Change from Baseline ≥5 bpm, n/N (%): 28/237 (11.8) %
  HR Change from Baseline ≥15 bpm, n/N (%): 1/237 (0.4) %
  SBP Change from Baseline [≥] 5 mm Hg, n/N (%): 28/237 (11.8) %
  SBP Change from Baseline [≥] 10 mm Hg, n/N (%): 10/237 (4.2) %
  SBP Change from Baseline ≥15 mm Hg, n/N (%): 3/237 (1.3) %
  DBP Change from Baseline, Mean (95% CI) Max: 4.80 (3.88, 5.72) mm Hg
  HR Change from Baseline, Mean (95% CI) Maximum: 6.12 (5.10, 7.15) bpm
  SBP Change from Baseline, Mean (95% CI) Maximum: 6.51 (5.09, 7.93) mm Hg
  DBP Change from Baseline, Mean (95% CI) (week 1): −0.69 (−1.72, 0.34) mm Hg
  HR Change from Baseline, Mean (95% CI) (week 1): 0.35 (−0.69, 1.38) bpm
  SBP Change from Baseline, Mean (95% CI) (week 1): −0.77 (−2.22, 0.68) mm Hg
[8]; 25 mg QD
  Maximum MA4 HR change from baseline, LS mean: 1.47 bpm
  Maximum MA4 HR, difference from placebo: −1.60 bpm
[8]; 50 mg QD
  Maximum MA4 HR change from baseline, LS mean: 1.50 bpm
  Maximum MA4 HR, difference from placebo: −1.57 bpm
[8]; 100 mg QD
  Maximum MA4 HR change from baseline, LS mean: 3.28 bpm
[8]; 150 mg QD
  Maximum MA4 HR change from baseline, LS mean: 3.17 bpm
  Maximum MA4 HR, difference from placebo: 0.10 bpm
[8]; 200 mg QD
  Maximum MA4 HR change from baseline, LS mean: 5.67 bpm
  Maximum MA4 HR, difference from placebo: 2.60 bpm
[8]; 300 mg QD
  Maximum MA4 HR change from baseline, LS mean: 9.06 bpm
  Maximum MA4 HR, difference from placebo: 5.98 bpm
[8]; 400 mg QD
  Maximum MA4 HR change from baseline, LS mean: 10.33 bpm
  Maximum MA4 HR, difference from placebo: 7.26 bpm
[9]
  thorough QT study finding: no clinically meaningful effect on QTc or blood pressure
[10]; Phase 1 program
  treatment-emergent SAEs or deaths: no treatment-emergent serious adverse events (SAEs) or deaths reported
[10]; single 2 to 600 mg, multiple 25 to 400 mg up to 28 days
  tolerability across the Phase 1 program: generally well tolerated
[11]
  dose recovered in feces: approximately 59%
  dose recovered in urine: ~20%
